From patent US20100204276A1, “INDOLE COMPOUNDS, A PROCESS FOR THEIR PREPARATION AND PHARMACEUTICAL COMPOSITIONS CONTAINING THEM” (LES LABORATOIRES SERVIER, priority 2006, published 2010)

Assays:
MT1 receptor = MT1 receptor (Homo sapiens, UniProt P48039); experiment: Melatonin MT1 receptor binding study (2-[125I]-iodomelatonin competition); settings: 2-[125I]-iodomelatonin as radioligand, triplicate
Description: (§1) The MT1 or MT2 receptor binding experiments are carried out using 2-[^125I]-iodomelatonin as reference radioligand. The radioactivity retained is determined using a liquid scintillation counter.
(§2) Competitive binding experiments are then carried out in triplicate using the various test compounds. A range of different concentrations is tested for each compound. The results enable the binding affinities (Ki) of the compounds tested to be determined.

MT2 receptor = biological target: T1, MT2 receptor (Homo sapiens, UniProt P49286); experiment: Melatonin MT2 receptor binding study (2-[125I]-iodomelatonin competition); settings: 2-[125I]-iodomelatonin as radioligand, triplicate
T1 sequence (P49286 1-362): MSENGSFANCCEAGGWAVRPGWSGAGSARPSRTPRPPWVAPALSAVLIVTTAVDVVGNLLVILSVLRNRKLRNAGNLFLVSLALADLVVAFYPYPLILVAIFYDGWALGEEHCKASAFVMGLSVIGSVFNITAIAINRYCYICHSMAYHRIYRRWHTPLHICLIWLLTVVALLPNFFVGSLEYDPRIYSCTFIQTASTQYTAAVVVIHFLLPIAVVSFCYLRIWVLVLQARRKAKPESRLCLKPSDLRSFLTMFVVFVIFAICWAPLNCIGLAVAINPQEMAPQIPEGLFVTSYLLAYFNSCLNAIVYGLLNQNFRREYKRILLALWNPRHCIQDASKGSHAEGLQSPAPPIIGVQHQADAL
Description: as §1, §2

Chain of MT1 receptor (P48039 whole entry): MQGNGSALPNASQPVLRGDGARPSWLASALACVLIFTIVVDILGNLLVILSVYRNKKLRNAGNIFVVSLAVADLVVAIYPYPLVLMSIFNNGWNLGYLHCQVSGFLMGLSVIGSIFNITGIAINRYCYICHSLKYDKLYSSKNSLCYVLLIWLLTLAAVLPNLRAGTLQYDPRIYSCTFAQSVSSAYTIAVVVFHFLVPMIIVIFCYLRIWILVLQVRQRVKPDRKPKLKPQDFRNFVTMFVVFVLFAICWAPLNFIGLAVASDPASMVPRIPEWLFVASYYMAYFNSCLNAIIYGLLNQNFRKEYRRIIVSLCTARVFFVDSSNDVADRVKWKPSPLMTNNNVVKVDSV

Molecule `CCCC(=O)NCCc1c[nH]c2ccc(OCCN3CCCCC3)cc12` [Example 3, N-(2-{5-[2-(1-piperidinyl)ethoxy]-1H-indol-3-yl}ethyl)butanamide] has a melting point of 113 to 114 °C, a Ki (MT1 receptor) of 11 nM and a Ki (MT2 receptor) of 19 nM.
